# Tests used:
# [1] = test system: ENR+CD organoids (ISC to Paneth cell differentiation); assay: Primary screen: CCh-stimulated lysozyme secretion LYZ.S, 2.5-D 384-well ENR+CD organoid differentiation; type: cell-based, mouse; details: primary screen
# Description: (§1) High-throughput screening.
# [2] = test system: ENR+CD organoids (ISC to Paneth cell differentiation); assay: Primary screen: basal (non-stimulated) lysozyme secretion LYZ.NS, 2.5-D 384-well ENR+CD organoid differentiation; type: cell-based, mouse
# Description: as §1
# [3] = test system: ENR+CD organoids; assay: Primary screen: ATP (CellTiter-Glo 3D, CTG) cell number/viability, 2.5-D 384-well ENR+CD organoids;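 further: compounds given at plating and again on day 3 over a 6-day differentiation from ENR+CV stem-cell-enriched precursors, ATP measured on day 6, plate median as control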
# [4] = dose 0.08 uM, FC relative to plate median
# [5] = dose 0.40 uM, FC relative to plate median
# [6] = dose 2.00 uM, FC relative to plate median
# [7] = dose 10.00 uM, FC relative to plate median
# [8] = primary screen, dose 0.08 uM, FC relative to plate median
# [9] = primary screen, dose 0.08 uM, standard z score
# [10] = primary screen, dose 0.40 uM, FC relative to plate median
# [11] = primary screen, dose 0.40 uM, standard z score
# [12] = primary screen, dose 2.00 uM, FC relative to plate median
# [13] = primary screen, dose 2.00 uM, standard z score
# [14] = primary screen, dose 10.00 uM, FC relative to plate median
# [15] = primary screen, dose 10.00 uM, standard z score
# [16] = primary screen, standard z score, dose 0.08 uM
# [17] = primary screen, standard z score, dose 0.40 uM
# [18] = primary screen, standard z score, dose 2.00 uM
# [19] = primary screen, standard z score, dose 10.00 uM
# [20] = primary screen; dose 0.08 uM; FC vs plate median
# [21] = primary screen; dose 0.40 uM; FC vs plate median
# [22] = primary screen; dose 2.00 uM; FC vs plate median
# [23] = primary screen; dose 10.00 uM; FC vs plate median
molecule,measurement,setting,value
CCCN[C@H]1CCc2nc(N)sc2C1 [Pramipexole],Dose.FC.LYZ.S,[1]; [4],0.050 log2 fold change
same,Dose.FC.LYZ.S,[1]; [5],0.123 log2 fold change
same,Dose.FC.LYZ.S,[1]; [6],0.041 log2 fold change
same,Dose.FC.LYZ.S,[1]; [7],0.071 log2 fold change
same,Dose.FC.LYZ.NS,[2]; [8],0.057 log2 fold change
same,Z.LYZ.NS,[2]; [9],0.495
same,Dose.FC.LYZ.NS,[2]; [10],0.027 log2 fold change
same,Z.LYZ.NS,[2]; [11],0.234
same,Dose.FC.LYZ.NS,[2]; [12],0.027 log2 fold change
same,Z.LYZ.NS,[2]; [13],0.239
same,Dose.FC.LYZ.NS,[2]; [14],0.005 log2 fold change
same,Z.LYZ.NS,[2]; [15],0.043
same,Dose.FC.CTG,[3]; [8],0.109 log2 fold change
same,Dose.FC.CTG,[3]; [10],0.182 log2 fold change
same,Dose.FC.CTG,[3]; [12],0.026 log2 fold change
same,Dose.FC.CTG,[3]; [14],0.231 log2 fold change
O=C(O)c1cc2cccc([N+](=O)[O-])c2[nH]1 [CRT0044876],Dose.FC.LYZ.S,[1]; dose 0.08 uM,−0.002 log2 fold change
same,Dose.FC.LYZ.S,[1]; dose 0.40 uM,0.055 log2 fold change
same,Dose.FC.LYZ.S,[1]; dose 2.00 uM,0.014 log2 fold change
same,Dose.FC.LYZ.S,[1]; dose 10.00 uM,−0.061 log2 fold change
same,Dose.FC.LYZ.NS,"[2]; primary screen, dose 0.08 uM",0.016 log2 fold change
same,Dose.FC.LYZ.NS,"[2]; primary screen, dose 0.40 uM",0.034 log2 fold change
same,Dose.FC.LYZ.NS,"[2]; primary screen, dose 2.00 uM",0.047 log2 fold change
same,Dose.FC.LYZ.NS,"[2]; primary screen, dose 10.00 uM",0.032 log2 fold change
same,Z.LYZ.NS,[2]; [16],0.135
same,Z.LYZ.NS,[2]; [17],0.298
same,Z.LYZ.NS,[2]; [18],0.408
same,Z.LYZ.NS,[2]; [19],0.278
same,Dose.FC.CTG,"[3]; primary screen, dose 0.08 uM",−0.171 log2 fold change
same,Dose.FC.CTG,"[3]; primary screen, dose 0.40 uM",−0.040 log2 fold change
same,Dose.FC.CTG,"[3]; primary screen, dose 2.00 uM",−0.081 log2 fold change
same,Dose.FC.CTG,"[3]; primary screen, dose 10.00 uM",−0.099 log2 fold change
same,Z.CTG,[3]; [16],−0.410
same,Z.CTG,[3]; [17],−0.096
same,Z.CTG,[3]; [18],−0.192
same,Z.CTG,[3]; [19],−0.237
COC(=O)C1=C(C#N)NC(C)=C(C(=O)OC(C)C)C1c1cccc([N+](=O)[O-])c1 (centres unmarked) [Nilvadipine],Dose.FC.LYZ.S,"[1]; dose 0.08 uM, FC vs plate median",0.088 log2 fold change
same,Dose.FC.LYZ.S,"[1]; dose 0.40 uM, FC vs plate median",0.013 log2 fold change
same,Dose.FC.LYZ.S,"[1]; dose 2.00 uM, FC vs plate median",0.071 log2 fold change
same,Dose.FC.LYZ.S,"[1]; dose 10.00 uM, FC vs plate median",−0.008 log2 fold change
same,Z.LYZ.NS,[2]; [9],0.857
same,Z.LYZ.NS,[2]; [11],0.034
same,Z.LYZ.NS,[2]; [13],0.500
same,Z.LYZ.NS,[2]; [15],0.082
same,Dose.FC.LYZ.NS,[2]; [20],0.098 log2 fold change
same,Dose.FC.LYZ.NS,[2]; [21],0.004 log2 fold change
same,Dose.FC.LYZ.NS,[2]; [22],0.057 log2 fold change
same,Dose.FC.LYZ.NS,[2]; [23],0.009 log2 fold change
same,Dose.FC.CTG,[3]; [20],0.206 log2 fold change
same,Dose.FC.CTG,[3]; [21],0.135 log2 fold change
same,Dose.FC.CTG,[3]; [22],0.212 log2 fold change
same,Dose.FC.CTG,[3]; [23],0.192 log2 fold change
O=C(Nc1ccccc1)c1cc([N+](=O)[O-])ccc1Cl [GW9662],Dose.FC.LYZ.S (log2 fold change),[1]; dose 0.08 uM,0.036
same,Dose.FC.LYZ.S (log2 fold change),[1]; dose 0.40 uM,0.080
same,Dose.FC.LYZ.S (log2 fold change),[1]; dose 2.00 uM,0.093
same,Dose.FC.LYZ.S (log2 fold change),[1]; dose 10.00 uM,0.020
same,Dose.FC.LYZ.NS (log2 fold change),"[2]; primary screen, dose 0.08 uM",0.035
same,Z.LYZ.NS (standard z score),"[2]; primary screen, dose 0.08 uM",0.305
same,Dose.FC.LYZ.NS (log2 fold change),"[2]; primary screen, dose 0.40 uM",0.098
same,Z.LYZ.NS (standard z score),"[2]; primary screen, dose 0.40 uM",0.852
same,Dose.FC.LYZ.NS (log2 fold change),"[2]; primary screen, dose 2.00 uM",0.046
same,Z.LYZ.NS (standard z score),"[2]; primary screen, dose 2.00 uM",0.400
same,Dose.FC.LYZ.NS (log2 fold change),"[2]; primary screen, dose 10.00 uM",0.030
same,Z.LYZ.NS (standard z score),"[2]; primary screen, dose 10.00 uM",0.264
same,Dose.FC.CTG (log2 fold change),"[3]; primary screen, dose 0.08 uM",0.115
same,Z.CTG (standard z score),"[3]; primary screen, dose 0.08 uM",0.274
same,Dose.FC.CTG (log2 fold change),"[3]; primary screen, dose 0.40 uM",0.041
same,Z.CTG (standard z score),"[3]; primary screen, dose 0.40 uM",0.098
same,Dose.FC.CTG (log2 fold change),"[3]; primary screen, dose 2.00 uM",0.212
same,Z.CTG (standard z score),"[3]; primary screen, dose 2.00 uM",0.508
same,Dose.FC.CTG (log2 fold change),"[3]; primary screen, dose 10.00 uM",0.133
same,Z.CTG (standard z score),"[3]; primary screen, dose 10.00 uM",0.318
NC(=O)C1CCCc2c1[nH]c1ccc(Cl)cc21 (centres unmarked) [EX 527 (Selisistat)],Dose.FC.LYZ.S,[1]; dose 0.08 uM,0.062 log2 fold change
same,Dose.FC.LYZ.S,[1]; dose 0.40 uM,0.047 log2 fold change
same,Dose.FC.LYZ.S,[1]; dose 2.00 uM,−0.051 log2 fold change
same,Dose.FC.LYZ.S,[1]; dose 10.00 uM,−0.011 log2 fold change
same,Dose.FC.LYZ.NS,"[2]; primary screen, dose 0.08 uM",0.100 log2 fold change
same,Dose.FC.LYZ.NS,"[2]; primary screen, dose 0.40 uM",0.059 log2 fold change
same,Dose.FC.LYZ.NS,"[2]; primary screen, dose 2.00 uM",0.030 log2 fold change
same,Dose.FC.LYZ.NS,"[2]; primary screen, dose 10.00 uM",0.057 log2 fold change
same,Z.LYZ.NS,[2]; [16],0.871
same,Z.LYZ.NS,[2]; [17],0.512
same,Z.LYZ.NS,[2]; [18],0.261
same,Z.LYZ.NS,[2]; [19],0.494
same,Dose.FC.CTG,"[3]; primary screen, dose 0.08 uM",0.240 log2 fold change
same,Dose.FC.CTG,"[3]; primary screen, dose 0.40 uM",0.174 log2 fold change
same,Dose.FC.CTG,"[3]; primary screen, dose 2.00 uM",0.341 log2 fold change
same,Dose.FC.CTG,"[3]; primary screen, dose 10.00 uM",0.320 log2 fold change
same,Z.CTG,[3]; [16],0.574
same,Z.CTG,[3]; [17],0.415
same,Z.CTG,[3]; [18],0.814
same,Z.CTG,[3]; [19],0.766
Cc1ccc(NC(=O)C2(c3ccc4c(c3)OC(F)(F)O4)CC2)nc1-c1cccc(C(=O)O)c1 [VX-809 (Lumacaftor)],Dose.FC.LYZ.S,[1]; dose 0.08 uM,0.218 log2 fold change
same,Dose.FC.LYZ.S,[1]; dose 0.40 uM,−0.027 log2 fold change
same,Dose.FC.LYZ.S,[1]; dose 2.00 uM,−0.073 log2 fold change
same,Dose.FC.LYZ.S,[1]; dose 10.00 uM,−0.117 log2 fold change
same,Dose.FC.LYZ.NS,"[2]; primary screen, dose 0.08 uM",0.073 log2 fold change
same,Z.LYZ.NS (standard z score),"[2]; primary screen, dose 0.08 uM",0.634
same,Dose.FC.LYZ.NS,"[2]; primary screen, dose 0.40 uM",−0.041 log2 fold change
same,Z.LYZ.NS (standard z score),"[2]; primary screen, dose 0.40 uM",−0.353
same,Dose.FC.LYZ.NS,"[2]; primary screen, dose 2.00 uM",−0.032 log2 fold change
same,Z.LYZ.NS (standard z score),"[2]; primary screen, dose 2.00 uM",−0.279
same,Dose.FC.LYZ.NS,"[2]; primary screen, dose 10.00 uM",−0.082 log2 fold change
same,Z.LYZ.NS (standard z score),"[2]; primary screen, dose 10.00 uM",−0.713
same,Dose.FC.CTG,"[3]; primary screen, dose 0.08 uM",0.177 log2 fold change
same,Z.CTG (standard z score),"[3]; primary screen, dose 0.08 uM",0.423
same,Dose.FC.CTG,"[3]; primary screen, dose 0.40 uM",−0.062 log2 fold change
same,Z.CTG (standard z score),"[3]; primary screen, dose 0.40 uM",−0.149
same,Dose.FC.CTG,"[3]; primary screen, dose 2.00 uM",−0.145 log2 fold change
same,Z.CTG (standard z score),"[3]; primary screen, dose 2.00 uM",−0.346
same,Dose.FC.CTG,"[3]; primary screen, dose 10.00 uM",0.032 log2 fold change
same,Z.CTG (standard z score),"[3]; primary screen, dose 10.00 uM",0.076
CNC(=O)c1ccccc1Nc1nc(Nc2ccc(N3CCOCC3)cc2OC)ncc1Cl [TAE226 (NVP-TAE226)],Dose.FC.LYZ.S,[1]; [4],−0.333 log2 fold change
same,Dose.FC.LYZ.S,[1]; [5],−0.376 log2 fold change
same,Dose.FC.LYZ.S,[1]; [6],−0.400 log2 fold change
same,Dose.FC.LYZ.S,[1]; [7],−0.426 log2 fold change
same,Dose.FC.LYZ.NS,[2]; [8],−0.256 log2 fold change
same,Z.LYZ.NS,[2]; [9],−2.226
same,Dose.FC.LYZ.NS,[2]; [10],−0.304 log2 fold change
same,Z.LYZ.NS,[2]; [11],−2.650
same,Dose.FC.LYZ.NS,[2]; [12],−0.323 log2 fold change
same,Z.LYZ.NS,[2]; [13],−2.813
same,Dose.FC.LYZ.NS,[2]; [14],−0.292 log2 fold change
same,Z.LYZ.NS,[2]; [15],−2.545
same,Dose.FC.CTG,[3]; [8],−0.472 log2 fold change
same,Z.CTG,[3]; [9],−1.127
same,Dose.FC.CTG,[3]; [10],−1.126 log2 fold change
same,Z.CTG,[3]; [11],−2.689
same,Dose.FC.CTG,[3]; [12],−1.284 log2 fold change
same,Z.CTG,[3]; [13],−3.068
same,Dose.FC.CTG,[3]; [14],−0.989 log2 fold change
same,Z.CTG,[3]; [15],−2.363
SN-38,Dose.FC.LYZ.S,[1]; [4],−0.419 log2 fold change
same,Dose.FC.LYZ.S,[1]; [5],−0.402 log2 fold change
same,Dose.FC.LYZ.S,[1]; [6],−0.391 log2 fold change
same,Dose.FC.LYZ.S,[1]; [7],−0.404 log2 fold change
same,Dose.FC.LYZ.NS,[2]; [8],−0.275 log2 fold change
same,Z.LYZ.NS,[2]; [9],−2.391
same,Dose.FC.LYZ.NS,[2]; [10],−0.288 log2 fold change
same,Z.LYZ.NS,[2]; [11],−2.505
same,Dose.FC.LYZ.NS,[2]; [12],−0.305 log2 fold change
same,Z.LYZ.NS,[2]; [13],−2.655
same,Dose.FC.LYZ.NS,[2]; [14],−0.299 log2 fold change
same,Z.LYZ.NS,[2]; [15],−2.606
same,Dose.FC.CTG,[3]; [8],−0.720 log2 fold change
same,Z.CTG,[3]; [9],−1.720
same,Dose.FC.CTG,[3]; [10],−1.091 log2 fold change
same,Z.CTG,[3]; [11],−2.606
same,Dose.FC.CTG,[3]; [12],−1.226 log2 fold change
same,Z.CTG,[3]; [13],−2.929
same,Dose.FC.CTG,[3]; [14],−1.166 log2 fold change
same,Z.CTG,[3]; [15],−2.785

# Source: patent publication US20220323406A1, “METHODS AND COMPOSITIONS FOR DIFFERENTIATING STEM CELLS” (Massachusetts Institute of Technology, priority 2019, published 2022)
